Data on 11 compounds can be found in BindingDB's records for patent WO2022101377 (Boehringer Ingelheim International, 2022).

SMILES strings stand for the structures.

The target of this test is Platelet-activating factor receptor (Homo sapiens, UniProt P25105). Kind of test: EVALUATION OF THE INHIBITION OF PAFR ACTIVATION
Platelet-activating factor receptor, sequence (P25105 whole entry): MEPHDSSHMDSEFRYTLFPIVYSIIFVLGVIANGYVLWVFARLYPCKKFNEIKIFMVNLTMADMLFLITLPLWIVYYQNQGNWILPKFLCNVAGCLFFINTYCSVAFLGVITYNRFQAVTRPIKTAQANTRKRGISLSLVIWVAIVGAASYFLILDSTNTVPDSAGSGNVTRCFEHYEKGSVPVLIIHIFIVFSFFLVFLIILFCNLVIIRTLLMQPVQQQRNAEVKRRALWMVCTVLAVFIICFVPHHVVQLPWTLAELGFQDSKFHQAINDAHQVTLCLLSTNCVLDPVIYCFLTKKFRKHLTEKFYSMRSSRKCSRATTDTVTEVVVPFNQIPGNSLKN
On the procedure:
USING AN ENDPOINT ASSAY HEK293 cells overexpressing human PAFR (produced in-house) are seeded into a Poly-D-Lysine coated 384 well white cell culture microtiter assay plate with lid (15.000 cells per well). Subsequently, the plates are incubated over night at 37 °C/5% CO2. On the next day, cells are being washed and subsequently, various concentrations of the test compounds (compounds in 100% DMSO; final concentratrion of DMSO in wells is 1%) are added to the assay plate via Echo 555 acoustic liquid handler. Plates are then incubated with lid for 90 minutes at 37 °C/5% CO2. Thereafter, PAF ligand (Cayman Chemical Company, Item no.: 60900) is added at a final concentration of 11 nM. Plates are then incubated with lid for 60 minutes at 37 °C/5% CO2. Then, 5 µl per well of Anti-IP1-Antibody-Cryptate solution and 5 µL per well of IP1-d2 solution are added to all wells of the plate and the plate is incubated for another 60 minutes light protected at room temperature. The emissions at 620 nm and 665 nm (Excitation wavelength: 320 nm) are measured using an Envision Reader (PerkinElmer).
By IC50 is commonly meant the concentration at which inhibition is half-maximal. With `Cc1ccccc1[C@H]1NCc2nnc(C)n2-c2sc3c(c21)C[C@H](C(=O)N1CCOCC1)C3` [WO2022101377, Example 63], the IC50 was > 568 nM.

Take `Cc1nnc2n1-c1sc3c(c1C(c1ccccc1C(F)(F)F)NC2)CC(C(=O)N1CCOCC1)C3` (stereo unspecified) [WO2022101377, Example 56]: the IC50 was > 322 nM.

With `Cc1nnc2n1-c1sc3c(c1C(c1ccccc1C1CC1)NC2)CC(C(=O)N1CCOCC1)C3` (stereo unspecified) [WO2022101377, Example 59], the IC50 was > 322 nM.

As to `COc1ccccc1C1NCc2nnc(C)n2-c2sc3c(c21)CC(C(=O)N1CCOCC1)C3` (stereo unspecified) [WO2022101377, Example 54], the IC50 was > 322 nM.

For `Cc1nnc2n1-c1sc3c(c1C(c1cc(F)cc(F)c1)NC2)CC(C(=O)N1CCOCC1)C3` (stereo unspecified) [WO2022101377, Example 58], the half-inhibitory concentration (IC50) is > 322 nM.

For the compound `Cc1nnc2n1-c1sc3c(c1C(c1ccccc1CO)NC2)CC(C(=O)N1CCOCC1)C3` (stereo unspecified) [WO2022101377, Example 60], the IC50 was > 322 nM.

With `Cc1nnc2n1-c1sc3c(c1C(c1ccccc1)NC2)CC(C(=O)N1CCOCC1)C3` (stereo unspecified) [WO2022101377, Example 74], the IC50 stood at 102 nM.

As for `CCCc1nnc2n1-c1sc3c(c1C(c1ccccc1Cl)NC2)CC(C(=O)N1CCOCC1)C3` (stereo unspecified) [WO2022101377, Example 80], the IC50 amounted to 110 nM.

`CSc1ccccc1C1NCc2nnc(C)n2-c2sc3c(c21)CC(C(=O)N1CCOCC1)C3` (stereo unspecified) [WO2022101377, Example 79]: the IC50 turned out to be 235 nM.

As for `Cc1nnc2n1-c1sc3c(c1C(c1ccccc1O)NC2)CC(C(=O)N1CCOCC1)C3` (stereo unspecified) [WO2022101377, Example 61], the IC50 is > 322 nM.

Regarding `Cc1nnc2n1-c1sc3c(c1C(c1ccccc1Cl)NC2)C[C@H](C(=O)N1CCCC2(CC2)C1)C3` (stereo partly specified) [WO2022101377, Example 66], the IC50 was 2.7 nM.
